In ChEMBL document CHEMBL5579880, “Rational Design of a Novel 6H-Benzo[c]chromen Series as Selective PI3Kα Inhibitors” (J Med Chem, 2024):

Assays:
[1] = molecular target: T1, Phosphatidylinositol 4,5-bisphosphate 3-kinase catalytic subunit delta isoform (Homo sapiens, UniProt O00329); test: Inhibition of PI3Kdelta (unknown origin) incubated for 60 mins in presence of ATP by ADP-Glo reagent assay relative to control
T1 sequence (O00329 whole entry): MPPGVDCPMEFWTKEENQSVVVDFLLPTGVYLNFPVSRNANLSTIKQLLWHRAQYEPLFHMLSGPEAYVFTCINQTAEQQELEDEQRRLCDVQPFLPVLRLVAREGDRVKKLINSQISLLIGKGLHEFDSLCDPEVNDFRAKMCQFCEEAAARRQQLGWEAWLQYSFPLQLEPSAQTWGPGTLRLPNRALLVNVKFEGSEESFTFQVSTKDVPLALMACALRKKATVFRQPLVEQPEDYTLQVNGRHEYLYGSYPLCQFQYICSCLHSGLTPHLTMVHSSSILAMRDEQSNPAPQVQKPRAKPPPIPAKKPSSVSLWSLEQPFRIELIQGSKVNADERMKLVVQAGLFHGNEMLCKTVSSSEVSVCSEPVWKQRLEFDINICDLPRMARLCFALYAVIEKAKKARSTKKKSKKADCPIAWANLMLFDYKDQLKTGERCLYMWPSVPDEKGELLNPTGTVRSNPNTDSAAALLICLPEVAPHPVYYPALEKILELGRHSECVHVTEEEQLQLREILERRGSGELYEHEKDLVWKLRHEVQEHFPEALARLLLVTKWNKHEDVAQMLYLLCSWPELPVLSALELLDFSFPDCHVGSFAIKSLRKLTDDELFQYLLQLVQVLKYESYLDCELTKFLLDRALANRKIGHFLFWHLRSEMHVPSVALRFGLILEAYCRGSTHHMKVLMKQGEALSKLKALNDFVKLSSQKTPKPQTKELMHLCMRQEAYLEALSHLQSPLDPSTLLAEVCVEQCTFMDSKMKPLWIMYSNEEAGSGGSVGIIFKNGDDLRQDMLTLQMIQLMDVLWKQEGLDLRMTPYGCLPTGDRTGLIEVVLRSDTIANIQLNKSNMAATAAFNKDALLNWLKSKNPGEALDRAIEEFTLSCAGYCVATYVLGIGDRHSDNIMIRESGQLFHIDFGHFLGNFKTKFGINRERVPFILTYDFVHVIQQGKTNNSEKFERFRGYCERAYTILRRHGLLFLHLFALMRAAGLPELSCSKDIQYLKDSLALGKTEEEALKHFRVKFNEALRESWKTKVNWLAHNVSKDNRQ

[2] = molecular target: Phosphatidylinositol 4,5-bisphosphate 3-kinase catalytic subunit gamma isoform (Homo sapiens, UniProt P48736); test: Inhibition of PI3Kgamma (unknown origin) incubated for 60 mins in presence of ATP by ADP-Glo reagent assay
Phosphatidylinositol 4,5-bisphosphate 3-kinase catalytic subunit gamma isoform, sequence (P48736 whole entry, canonical isoform): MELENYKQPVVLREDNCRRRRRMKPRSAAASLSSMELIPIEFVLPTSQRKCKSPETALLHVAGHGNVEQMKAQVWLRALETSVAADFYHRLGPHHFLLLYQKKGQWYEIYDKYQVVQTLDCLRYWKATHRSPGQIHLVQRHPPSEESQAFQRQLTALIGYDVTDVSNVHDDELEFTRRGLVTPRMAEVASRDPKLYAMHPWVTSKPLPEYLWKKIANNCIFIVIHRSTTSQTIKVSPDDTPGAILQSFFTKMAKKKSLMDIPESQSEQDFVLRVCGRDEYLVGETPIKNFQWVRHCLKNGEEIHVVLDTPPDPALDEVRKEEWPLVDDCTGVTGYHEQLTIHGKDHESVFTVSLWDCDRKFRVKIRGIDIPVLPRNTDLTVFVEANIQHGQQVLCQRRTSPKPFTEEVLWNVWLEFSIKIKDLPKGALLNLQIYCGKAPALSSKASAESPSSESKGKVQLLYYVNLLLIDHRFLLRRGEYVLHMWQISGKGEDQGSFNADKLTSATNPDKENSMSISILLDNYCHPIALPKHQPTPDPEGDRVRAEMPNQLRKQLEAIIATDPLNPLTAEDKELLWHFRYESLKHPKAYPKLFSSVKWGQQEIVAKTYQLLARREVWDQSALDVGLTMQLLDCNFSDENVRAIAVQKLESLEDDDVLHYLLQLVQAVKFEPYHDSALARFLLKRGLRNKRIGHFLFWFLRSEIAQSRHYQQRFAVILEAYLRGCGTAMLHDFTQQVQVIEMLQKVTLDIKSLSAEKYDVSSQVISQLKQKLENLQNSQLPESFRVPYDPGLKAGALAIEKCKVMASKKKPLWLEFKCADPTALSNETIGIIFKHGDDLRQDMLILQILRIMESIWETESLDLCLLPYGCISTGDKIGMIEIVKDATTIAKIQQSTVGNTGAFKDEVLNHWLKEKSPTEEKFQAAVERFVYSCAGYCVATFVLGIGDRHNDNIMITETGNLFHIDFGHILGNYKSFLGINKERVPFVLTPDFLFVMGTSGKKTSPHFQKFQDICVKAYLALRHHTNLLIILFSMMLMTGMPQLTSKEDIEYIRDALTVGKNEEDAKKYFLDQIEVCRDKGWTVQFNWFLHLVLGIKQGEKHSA

[3] = molecular target: Phosphatidylinositol 4,5-bisphosphate 3-kinase catalytic subunit beta isoform (Homo sapiens, UniProt P42338); test: Inhibition of PI3Kbeta (unknown origin) incubated for 60 mins in presence of ATP by ADP-Glo reagent assay
Phosphatidylinositol 4,5-bisphosphate 3-kinase catalytic subunit beta isoform, sequence (P42338 whole entry, canonical isoform): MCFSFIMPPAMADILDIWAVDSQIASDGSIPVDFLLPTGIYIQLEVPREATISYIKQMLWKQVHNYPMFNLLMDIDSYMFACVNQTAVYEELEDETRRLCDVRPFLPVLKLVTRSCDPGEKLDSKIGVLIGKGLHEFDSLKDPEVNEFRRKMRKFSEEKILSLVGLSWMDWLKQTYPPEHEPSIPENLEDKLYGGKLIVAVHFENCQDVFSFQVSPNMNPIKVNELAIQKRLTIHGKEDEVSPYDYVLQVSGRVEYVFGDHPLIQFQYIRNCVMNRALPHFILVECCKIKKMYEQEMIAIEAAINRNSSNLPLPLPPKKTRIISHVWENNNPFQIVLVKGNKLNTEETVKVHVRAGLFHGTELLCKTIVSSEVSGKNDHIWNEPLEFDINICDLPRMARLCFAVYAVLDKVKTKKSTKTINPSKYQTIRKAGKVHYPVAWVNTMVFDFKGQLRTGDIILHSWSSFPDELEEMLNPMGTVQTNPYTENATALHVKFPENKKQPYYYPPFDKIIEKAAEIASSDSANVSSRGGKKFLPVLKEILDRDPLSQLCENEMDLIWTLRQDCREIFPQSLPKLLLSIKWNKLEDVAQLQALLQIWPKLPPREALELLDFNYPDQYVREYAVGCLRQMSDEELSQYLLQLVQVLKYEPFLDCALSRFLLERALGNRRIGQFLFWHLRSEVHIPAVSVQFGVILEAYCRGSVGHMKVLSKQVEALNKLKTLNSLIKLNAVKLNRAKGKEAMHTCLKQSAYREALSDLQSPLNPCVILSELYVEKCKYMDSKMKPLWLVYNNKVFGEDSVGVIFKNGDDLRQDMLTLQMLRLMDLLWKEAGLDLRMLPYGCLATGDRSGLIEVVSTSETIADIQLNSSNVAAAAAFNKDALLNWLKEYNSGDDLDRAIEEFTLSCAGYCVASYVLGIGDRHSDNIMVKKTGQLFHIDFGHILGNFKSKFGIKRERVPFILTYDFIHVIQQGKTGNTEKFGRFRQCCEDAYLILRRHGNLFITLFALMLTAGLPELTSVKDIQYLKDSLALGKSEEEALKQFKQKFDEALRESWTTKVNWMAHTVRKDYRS

T47D = test: cells; conditions: Homo sapiens, 168 h
Description: Antiproliferative activity against human T47D cells assessed as inhibition of cell growth incubated for 7 days by CCK8 assay

MCF7 [4] = test: cells; conditions: Homo sapiens, MCF7, 168 h
Description: Antiproliferative activity against human MCF7 cells assessed as inhibition of cell growth incubated for 7 days by CCK8 assay

MCF7 [5] = test: Induction of apoptosis in human MCF7 cells assessed as late apoptotic cells at 10 uM incubated for 24 hrs by Annexin V-PE/7-AAD staining based flow cytometric analysis (Rvb= […]); type: functional
MCF7 [6] = test: cells; conditions: Homo sapiens, MCF7, 24 h, read-out: Activity
MCF7 [7] = test: Antitumor activity against human MCF7 cells xenografted in NCG mouse assessed as inhibition of tumor growth at 12.5 mg/kg,po administrated daily for 21 days relative to control; type: functional; conditions: MCF7, 504 h, time 21 day, read-out: TGI
MCF7 [8] = test: Induction of apoptosis in human MCF7 cells assessed as early apoptotic cells at […] incubated for 24 hrs by Annexin V-PE/7-AAD staining based flow cytometric analysis (Rvb= 1.3 %); type: functional; conditions: dose 1.1 µM
MCF7 [9] = test: Induction of apoptosis in human MCF7 cells assessed as early apoptotic cells at 3.3 uM incubated for 24 hrs by Annexin V-PE/7-AAD staining based flow cytometric analysis (Rvb= 1.3 %); type: functional
MCF7 [10] = test: Induction of apoptosis in human MCF7 cells assessed as late apoptotic cells at […] incubated for 24 hrs by Annexin V-PE/7-AAD staining based flow cytometric analysis (Rvb= […]); type: functional; conditions: dose 1.1 µM
MCF7 [11] = test: Induction of apoptosis in human MCF7 cells assessed as early apoptotic cells at 10 uM incubated for 24 hrs by Annexin V-PE/7-AAD staining based flow cytometric analysis (Rvb= 1.3 %); type: functional
MCF7 [12] = test: cells; conditions: Homo sapiens, MCF7, 24 h, read-out: Activity; remark: listed apart in the source
MCF7 [13] = test: cells; conditions: Homo sapiens, MCF7, 24 h, read-out: Activity; remark: listed apart in the source
MCF7 [14] = test: Induction of apoptosis in human MCF7 cells assessed as necrotic cells at 3.3 uM incubated for 24 hrs by Annexin V-PE/7-AAD staining based flow cytometric analysis (Rvb= 0.4 %); type: functional
MCF7 [15] = test: Induction of apoptosis in human MCF7 cells assessed as necrotic cells at 10 uM incubated for 24 hrs by Annexin V-PE/7-AAD staining based flow cytometric analysis (Rvb= 0.4 %); type: functional
MCF7 [16] = test: Induction of apoptosis in human MCF7 cells assessed as late apoptotic cells at 3.3 uM incubated for 24 hrs by Annexin V-PE/7-AAD staining based flow cytometric analysis (Rvb= […]); type: functional
MCF7 [17] = test: Induction of apoptosis in human MCF7 cells assessed as necrotic cells at […] incubated for 24 hrs by Annexin V-PE/7-AAD staining based flow cytometric analysis (Rvb= 0.4 %); type: functional; conditions: dose 1.1 µM

| Structure (SMILES) | IC50 [1] [nM] | IC50 [2] [µM] | IC50 [3] [µM] | IC50 (T47D) [µM] | IC50 (MCF7 [4]) [µM] | also measured |
| --- | --- | --- | --- | --- | --- | --- |
| C[C@H](Oc1ccc2c(c1)OCc1ccc(-c3ncccn3)cc1-2)C(N)=O | 1160 | 7.09 | > 10 |  |  |  |
| CC(C)n1nccc1-c1ccc2c(c1)-c1ccc(O[C@@H](C)C(N)=O)cc1OC2 |  |  |  | 24.9 | 21.9 |  |
| C[C@H](Oc1ccc2c(c1)OCc1ccc(-c3ccncc3)cc1-2)C(N)=O | 352 | 0.94 | 3.25 |  |  |  |
| C[C@H](Oc1ccc2c(c1)OCc1ccc(-c3cccnc3)cc1-2)C(N)=O |  |  |  | 16.6 | 14.9 |  |
| C[C@H](Oc1ccc2c(c1)OCc1ccc(-c3ccccn3)cc1-2)C(N)=O |  |  |  | 8.1 | 13.9 |  |
| C[C@H](Oc1ccc2c(c1)OCc1ccc(-c3ccn(C)n3)cc1-2)C(N)=O |  |  |  | 11.5 | 17.2 |  |
| C[C@H](Oc1ccc2c(c1)OCc1ccc(-c3ncnn3C)cc1-2)C(N)=O | 933 | 5.07 | 4.97 |  |  |  |
| C[C@H](Oc1ccc2c(c1)OCc1ccc(-c3ccncn3)cc1-2)C(N)=O | 702 |  |  |  |  |  |
| C[C@H](Oc1ccc2c(c1)OCc1ccc(-c3cc[nH]n3)cc1-2)C(N)=O | 440 | 1.29 | 2.67 |  |  |  |
| Cc1nc(NC(=O)N2CCC[C@H]2C(N)=O)sc1-c1ccnc(C(C)(C)C(F)(F)F)c1 [ALPELISIB] |  |  |  | 0.4 | 0.6 | Activity (MCF7 [5]): 15%; viability at 10 µM (MCF7 [6]): 48.5%; inhibition in vivo at 12.5 mg/kg (MCF7 [7]): 88%; Activity (MCF7 [8]): 2.2%; Activity (MCF7 [9]): 3.9%; Activity (MCF7 [10]): 12.5%; Activity (MCF7 [11]): 2.9%; viability at […] (MCF7 [12]): 75%; viability at 3.3 µM (MCF7 [13]): 63.7%; Activity (MCF7 [14]): 16.3%; Activity (MCF7 [15]): 33.6%; Activity (MCF7 [16]): 16.1%; Activity (MCF7 [17]): 10.3% |
